Measurements reported in patent publication US20230372498A1, “PLK1 SELECTIVE DEGRADATION INDUCING COMPOUND” (UPPTHERA, priority 2020, published 2023).

Target: T1, PLK1 (Homo sapiens, UniProt P53350)
T1 construct: endogenous in cells; host or cells: HeLa
Assay: PLK1 protein degradation in HeLa cells, Western blotting (PLK1/GAPDH ratio)
Assay type: cell-based
Conditions: 6 hours compound incubation; for DC50: measured only if the grade of Dmax is A or B; for Dmax: thymidine block and release, 10 points three-fold from 3 μM, PLK1 to GAPDH ratio, read-out: Dmax
Procedure, shortened: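 Thymidine-synchronised HeLa cells (2 mM, 24 h) released 4 h into complete medium, then treated 6 h with compound in 10-point 3-fold dilutions from 3 μM. RIPA lysates (15 μg protein) run on SDS-PAGE; PLK1 Western blot normalised to GAPDH.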

T1 sequence (P53350 whole entry): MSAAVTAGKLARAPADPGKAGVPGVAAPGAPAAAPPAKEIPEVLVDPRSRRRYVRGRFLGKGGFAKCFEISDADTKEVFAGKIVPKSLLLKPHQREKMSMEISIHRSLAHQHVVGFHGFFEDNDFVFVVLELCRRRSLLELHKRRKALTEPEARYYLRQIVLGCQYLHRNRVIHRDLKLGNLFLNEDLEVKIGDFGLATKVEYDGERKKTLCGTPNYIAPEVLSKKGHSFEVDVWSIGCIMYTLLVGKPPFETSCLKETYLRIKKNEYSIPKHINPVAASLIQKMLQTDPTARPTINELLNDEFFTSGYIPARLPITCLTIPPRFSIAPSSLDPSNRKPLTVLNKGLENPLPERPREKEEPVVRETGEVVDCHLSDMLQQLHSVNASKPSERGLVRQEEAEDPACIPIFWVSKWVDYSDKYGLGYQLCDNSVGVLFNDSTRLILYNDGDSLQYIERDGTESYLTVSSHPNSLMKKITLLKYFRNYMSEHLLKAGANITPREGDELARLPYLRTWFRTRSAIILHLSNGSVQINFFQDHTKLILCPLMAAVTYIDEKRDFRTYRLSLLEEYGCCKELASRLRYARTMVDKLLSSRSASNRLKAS

With `COc1cc(C(=O)NC2CCN(CCOCCOCCOCCOCCNc3cccc4c3CN(C3CCC(=O)NC3=O)C4=O)CC2)c(F)cc1Nc1ncc2c(n1)N(C1CCCC1)CC(F)(F)C(=O)N2C` (stereo not drawn) [Compound 76, 4-((9-cyclopentyl-7,7-difluoro-5-methyl-6-oxo-6,7,8,9-tetrahydro-5H-pyrimido[4,5-b][1,4]diazepin-2-yl)amino)-N-(1-(14-((2-(2,6-dioxopiperidin-3-yl)-1-oxoisoindolin-4-yl)amino)-3,6,9,12-tetraoxatetradecyl)piperidin-4-yl)-2-fluoro-5-methoxybenzamide] the DC50 was at most 500 nM and the Dmax was 60 to 80%.
`COc1cc(C(=O)N[C@H]2CCN(C(=O)CCCCCNc3cccc4c3C(=O)N(C3CCC(=O)NC3=O)C4=O)C2)c(F)cc1Nc1ncc2c(n1)N(C1CCCC1)CC(F)(F)C(=O)N2C` (stereo partly drawn) [Compound 119, 4-((9-cyclopentyl-7,7-difluoro-5-methyl-6-oxo-6,7,8,9-tetrahydro-5H-pyrimido[4,5-b][1,4]diazepin-2-yl)amino)-N-((3S)-1-(6-((2-(2,6-dioxopiperidin-3-yl)-1,3-dioxoisoindolin-4-yl)amino)hexanoyl)pyrrolidin-3-yl)-2-fluoro-5-methoxybenzamide] showed a DC50 of at most 50 nM and a Dmax of at least 80%.
In the case of `COc1cc(C(=O)NCCOCCNc2cccc3c2C(=O)N(C2CCC(=O)NC2=O)C3=O)c(F)cc1Nc1ncc2c(n1)N(C1CCCC1)CC(F)(F)C(=O)N2C` (stereo not drawn) [Compound 151, 4-((9-cyclopentyl-7,7-difluoro-5-methyl-6-oxo-6,7,8,9-tetrahydro-5H-pyrimido[4,5-b][1,4]diazepin-2-yl)amino)-N-(2-(2-((2-(2,6-dioxopiperidin-3-yl)-1,3-dioxoisoindolin-4-yl)amino)ethoxy)ethyl)-2-fluoro-5-methoxybenzamide], the DC50 is reported as at most 500 nM and the Dmax is reported as 60 to 80%.
With `COc1cc(C(=O)NCCCCCCCCNc2cccc3c2C(=O)N(C2CCC(=O)NC2=O)C3=O)c(F)cc1Nc1ncc2c(n1)N(C1CCCC1)CC(F)(F)C(=O)N2C` (stereo not drawn) [Compound 154, 4-((9-cyclopentyl-7,7-difluoro-5-methyl-6-oxo-6,7,8,9-tetrahydro-5H-pyrimido[4,5-b][1,4]diazepin-2-yl)amino)-N-(8-((2-(2,6-dioxopiperidin-3-yl)-1,3-dioxoisoindolin-4-yl)amino)octyl)-2-fluoro-5-methoxybenzamide] the Dmax was under 60%.
With `COc1cc(C(=O)NC2CCN(CCCCCCCCNc3cccc4c3CN(C3CCC(=O)NC3=O)C4=O)CC2)c(F)cc1Nc1ncc2c(n1)N(C1CCCC1)CC(F)(F)C(=O)N2C` (stereo not drawn) [Compound 77, 4-((9-cyclopentyl-7,7-difluoro-5-methyl-6-oxo-6,7,8,9-tetrahydro-5H-pyrimido[4,5-b][1,4]diazepin-2-yl)amino)-N-(1-(8-((2-(2,6-dioxopiperidin-3-yl)-1-oxoisoindolin-4-yl)amino)octyl)piperidin-4-yl)-2-fluoro-5-methoxybenzamide] the DC50 was at most 500 nM and the Dmax was 60 to 80%.
Compound `COc1cc(C(=O)N[C@H]2CCN(C(=O)CCCC(=O)N3CC4(C3)CN(c3cccc5c3C(=O)N(C3CCC(=O)NC3=O)C5=O)C4)C2)c(F)cc1Nc1ncc2c(n1)N(C1CCCC1)CC(F)(F)C(=O)N2C` (stereo partly drawn) [Compound 149, 4-((9-cyclopentyl-7,7-difluoro-5-methyl-6-oxo-6,7,8,9-tetrahydro-5H-pyrimido[4,5-b][1,4]diazepin-2-yl)amino)-N-((3S)-1-(5-(6-(2-(2,6-dioxopiperidin-3-yl)-1,3-dioxoisoindolin-4-yl)-2,6-diazaspiro[3.3]heptan-2-yl)-5-oxopentanoyl)pyrrolidin-3-yl)-2-fluoro-5-methoxybenzamide] has a DC50 of at most 500 nM and a Dmax of 60 to 80%.
`COc1cc(C(=O)NC2CCN(CCCCOCCCNc3cccc4c3C(=O)N(C3CCC(=O)NC3=O)C4=O)CC2)c(F)cc1Nc1ncc2c(n1)N(C1CCCC1)CC(F)(F)C(=O)N2C` (stereo not drawn) [Compound 19, 4-((9-cyclopentyl-7,7-difluoro-5-methyl-6-oxo-6,7,8,9-tetrahydro-5H-pyrimido[4,5-b][1,4]diazepin-2-yl)amino)-N-(1-(4-(3-((2-(2,6-dioxopiperidin-3-yl)-1,3-dioxoisoindolin-4-yl)amino)propoxy)butyl)piperidin-4-yl)-2-fluoro-5-methoxybenzamide] was tested, and the DC50 was at most 500 nM and the Dmax was 60 to 80%.
Compound `COc1cc(C(=O)NCCOCCOCCNc2cccc3c2C(=O)N(C2CCC(=O)NC2=O)C3=O)c(F)cc1Nc1ncc2c(n1)N(C1CCCC1)CC(F)(F)C(=O)N2C` (stereo not drawn) [Compound 152, 4-((9-cyclopentyl-7,7-difluoro-5-methyl-6-oxo-6,7,8,9-tetrahydro-5H-pyrimido[4,5-b][1,4]diazepin-2-yl)amino)-N-(2-(2-(2-((2-(2,6-dioxopiperidin-3-yl)-1,3-dioxoisoindolin-4-yl)amino)ethoxy)ethoxy)ethyl)-2-fluoro-5-methoxybenzamide] has a DC50 of at most 50 nM and a Dmax of at least 80%.
Compound `COc1cc(C(=O)NC2CCN(C(=O)N3CCN(c4ccc5c(c4)C(=O)N(C4CCC(=O)NC4=O)C5=O)CC3)CC2)c(F)cc1Nc1ncc2c(n1)N(C1CCCC1)CC(F)(F)C(=O)N2C` (stereo not drawn) [Compound 72, 4-((9-cyclopentyl-7,7-difluoro-5-methyl-6-oxo-6,7,8,9-tetrahydro-5H-pyrimido[4,5-b][1,4]diazepin-2-yl)amino)-N-(1-(4-(2-(2,6-dioxopiperidin-3-yl)-1,3-dioxoisoindolin-5-yl)piperazine-1-carbonyl)piperidin-4-yl)-2-fluoro-5-methoxybenzamide] has a DC50 of at most 500 nM and a Dmax of 60 to 80%.
For `COc1cc(C(=O)N[C@H]2CCN(C(=O)CCCC(=O)N3CCN(c4ccc5c(c4)C(=O)N(C4CCC(=O)NC4=O)C5=O)CC3)C2)c(F)cc1Nc1ncc2c(n1)N(C1CCCC1)CC(F)(F)C(=O)N2C` (stereo partly drawn) [Compound 147, 4-((9-cyclopentyl-7,7-difluoro-5-methyl-6-oxo-6,7,8,9-tetrahydro-5H-pyrimido[4,5-b][1,4]diazepin-2-yl)amino)-N-((3S)-1-(5-(4-(2-(2,6-dioxopiperidin-3-yl)-1,3-dioxoisoindolin-5-yl)piperazin-1-yl)-5-oxopentanoyl)pyrrolidin-3-yl)-2-fluoro-5-methoxybenzamide], the DC50 was at most 500 nM and the Dmax was 60 to 80%.
For `COc1cc(C(=O)NC2CCN(CCCOCCCNc3cccc4c3C(=O)N(C3CCC(=O)NC3=O)C4=O)CC2)c(F)cc1Nc1ncc2c(n1)N(C1CCCC1)CC(F)(F)C(=O)N2C` (stereo not drawn) [Compound 18, 4-((9-cyclopentyl-7,7-difluoro-5-methyl-6-oxo-6,7,8,9-tetrahydro-5H-pyrimido[4,5-b][1,4]diazepin-2-yl)amino)-N-(1-(3-(3-((2-(2,6-dioxopiperidin-3-yl)-1,3-dioxoisoindolin-4-yl)amino)propoxy)propyl)piperidin-4-yl)-2-fluoro-5-methoxybenzamide], the DC50 was at most 500 nM and the Dmax was 60 to 80%.
In the case of `COc1cc(C(=O)NC2CCN(CCOCCCOCCNc3cccc4c3C(=O)N(C3CCC(=O)NC3=O)C4=O)CC2)c(F)cc1Nc1ncc2c(n1)N(C1CCCC1)CC(F)(F)C(=O)N2C` (stereo not drawn) [Compound 21, 4-((9-cyclopentyl-7,7-difluoro-5-methyl-6-oxo-6,7,8,9-tetrahydro-5H-pyrimido[4,5-b][1,4]diazepin-2-yl)amino)-N-(1-(2-(3-(2-((2-(2,6-dioxopiperidin-3-yl)-1,3-dioxoisoindolin-4-yl)amino)ethoxy)propoxy)ethyl)piperidin-4-yl)-2-fluoro-5-methoxybenzamide], the DC50 is reported as at most 50 nM and the Dmax is reported as at least 80%.
`COc1cc(C(=O)NC2CCN(C[C@@H]3C[C@@H]3CNc3cccc4c3C(=O)N(C3CCC(=O)NC3=O)C4=O)CC2)c(F)cc1Nc1ncc2c(n1)N(C1CCCC1)CC(F)(F)C(=O)N2C` (stereo partly drawn) [Compound 48, 4-((9-cyclopentyl-7,7-difluoro-5-methyl-6-oxo-6,7,8,9-tetrahydro-5H-pyrimido[4,5-b][1,4]diazepin-2-yl)amino)-N-(1-(((1R,2S)-2-(((2-(2,6-dioxopiperidin-3-yl)-1,3-dioxoisoindolin-4-yl)amino)methyl)cyclopropyl)methyl)piperidin-4-yl)-2-fluoro-5-methoxybenzamide] was tested, and the DC50 was at most 500 nM and the Dmax was 60 to 80%.
For `COc1cc(C(=O)NC2CCN(CCOCCOCCOCCNC(=O)COc3cccc4c3C(=O)N(C3CCC(=O)NC3=O)C4=O)CC2)c(F)cc1Nc1ncc2c(n1)N(C1CCCC1)CC(F)(F)C(=O)N2C` (stereo not drawn) [Compound 57, 4-((9-cyclopentyl-7,7-difluoro-5-methyl-6-oxo-6,7,8,9-tetrahydro-5H-pyrimido[4,5-b][1,4]diazepin-2-yl)amino)-N-(1-(1-((2-(2,6-dioxopiperidin-3-yl)-1,3-dioxoisoindolin-4-yl)oxy)-2-oxo-6,9,12-trioxa-3-azatetradecan-14-yl)piperidin-4-yl)-2-fluoro-5-methoxybenzamide], the DC50 was at most 500 nM and the Dmax was 60 to 80%.
`COc1cc(C(=O)N[C@H]2CCN(CC(=O)NCCOCCNc3cccc4c3C(=O)N(C3CCC(=O)NC3=O)C4=O)C2)c(F)cc1Nc1ncc2c(n1)N(C1CCCC1)CC(F)(F)C(=O)N2C` (stereo partly drawn) [Compound 121, 4-((9-cyclopentyl-7,7-difluoro-5-methyl-6-oxo-6,7,8,9-tetrahydro-5H-pyrimido[4,5-b][1,4]diazepin-2-yl)amino)-N-((3S)-1-(2-((2-(2-((2-(2,6-dioxopiperidin-3-yl)-1,3-dioxoisoindolin-4-yl)amino)ethoxy)ethyl)amino)-2-oxoethyl)pyrrolidin-3-yl)-2-fluoro-5-methoxybenzamide] gave a DC50 of at most 50 nM and a Dmax of at least 80%.
With `COc1cc(C(=O)NC2CCN(CCOCCOc3cc(-c4scnc4C)ccc3CNC(=O)[C@@H]3C[C@@H](O)CN3C(=O)[C@@H](NC(=O)C3(F)CC3)C(C)(C)C)CC2)c(F)cc1Nc1ncc2c(n1)N(C1CCCC1)CC(F)(F)C(=O)N2C` [Example 85, (2S,4R)—N-(2-(2-(2-(4-(4-((9-cyclopentyl-7,7-difluoro-5-methyl-6-oxo-6,7,8,9-tetrahydro-5H-pyrimido[4,5-b][1,4]diazepin-2-yl)amino)-2-fluoro-5-methoxybenzamido)piperidin-1-yl)ethoxy)ethoxy)-4-(4-methylthiazol-5-yl)benzyl)-1-((S)-2-(1-fluorocyclopropane-1-carboxamido)-3,3-dimethylbutanoyl)-4-hydroxypyrrolidine-2-carboxamide] the Dmax was under 60%.
